Experimental findings from PubChem BioAssay (NCI) are described below.

SMILES strings stand for the structures.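 Assay format: 96-well plates, 48-hour exposure. The concentration for full growth arrest is given as TGI.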

Test systems include SK-MEL-5 melanoma; SNB-19 CNS; U251 CNS; OVCAR-3 ovarian; UACC-257 melanoma; MALME-3M melanoma; SF-268 CNS; SR leukemia; ACHN renal; M14 melanoma; MCF7 breast; MDA-MB-435; HCC-2998 colon; HOP-92 NSCLC; RXF 393 renal; HS 578T breast.
Holding throughout (assay): growth of human tumour cells (NCI), 48 h

`CC(=O)NC1CCC(NC(=O)OC(C)(C)C)C(NC(=O)OC(C)(C)C)C1` (configuration not stated): the TGI in the test with SK-MEL-5 melanoma, in the test on SNB-19 CNS, in the test on U251 CNS, in the test with OVCAR-3 ovarian, in the test with UACC-257 melanoma and in the test with MALME-3M melanoma was greater than 100 µM each time. In addition, the TGI in the test with SF-268 CNS, with SR leukemia, in the test with ACHN renal, in the test on M14 melanoma, with MCF7 breast and with MDA-MB-435 was greater than 100 µM each time. Moreover, the TGI in the test on HCC-2998 colon, in the test with HOP-92 NSCLC, in the test on RXF 393 renal and with HS 578T breast was greater than 100 µM each time.
As to `COc1ccc(CN=C2Nc3ccncc3S(=O)(=O)N2c2ccccc2)cc1`, the TGI with SK-MEL-5 melanoma is 47.2 µM; in the test on SNB-19 CNS, greater than 100 µM; in the test with U251 CNS it was greater than 100 µM; in the test on OVCAR-3 ovarian it was greater than 100 µM; in the test on UACC-257 melanoma, greater than 100 µM; with MALME-3M melanoma it was greater than 100 µM. Further, the TGI in the test with SF-268 CNS was greater than 100 µM; in the test with SR leukemia, 73.3 µM; with ACHN renal, greater than 100 µM; in the test on M14 melanoma it was greater than 100 µM; with MCF7 breast it was greater than 100 µM; in the test with MDA-MB-435 it was 80.7 µM. Also, the TGI in the test on HCC-2998 colon was 54.9 µM; in the test on HOP-92 NSCLC, greater than 100 µM; in the test on RXF 393 renal it was greater than 100 µM; in the test with HS 578T breast it was greater than 100 µM.
Take `CC1C=C(NCC2(CO)CCC2)NC(N)=N1` (configuration not stated): the TGI in the test with SK-MEL-5 melanoma, in the test with SNB-19 CNS, in the test on U251 CNS, in the test with OVCAR-3 ovarian, with UACC-257 melanoma and with MALME-3M melanoma was greater than 100 µM in each case. For the same compound, the TGI with SF-268 CNS, in the test on SR leukemia, with ACHN renal, in the test on M14 melanoma, with MCF7 breast and in the test on MDA-MB-435 was greater than 100 µM in each case. The TGI in the test on HCC-2998 colon, with HOP-92 NSCLC, with RXF 393 renal and in the test with HS 578T breast was greater than 100 µM each time.
Turning to `CC1(C)N=C(N)N=C(N)N1c1ccc(CCCCc2ccc(Cl)cc2Cl)cc1`, the TGI with SK-MEL-5 melanoma is 2.84 µM; in the test on SNB-19 CNS, 11 µM; in the test with U251 CNS, 15.2 µM; with OVCAR-3 ovarian, 5.5 µM; in the test on UACC-257 melanoma, 8.65 µM; with MALME-3M melanoma, 16.8 µM. In addition, the TGI came out at 15.9 µM in the test on SF-268 CNS; 60.4 µM in the test with SR leukemia; 16.1 µM with ACHN renal; 14 µM in the test with M14 melanoma; 11.8 µM in the test on MCF7 breast; 13.9 µM with MDA-MB-435. Further, the TGI in the test on HCC-2998 colon was 17.4 µM; in the test with HOP-92 NSCLC it was 18 µM; in the test with RXF 393 renal it was 20.4 µM; with HS 578T breast it was 22.9 µM.
With `Cn1c2c(c3ccccc31)CC(=O)N1CCCCC1C21OCCO1` (configuration not stated), the TGI in the test with SK-MEL-5 melanoma, in the test with SNB-19 CNS, with U251 CNS, with OVCAR-3 ovarian, in the test with UACC-257 melanoma and in the test on MALME-3M melanoma was greater than 100 µM each time. Also, the TGI in the test on SF-268 CNS, in the test on SR leukemia, with ACHN renal, in the test with M14 melanoma, in the test on MCF7 breast and with MDA-MB-435 was greater than 100 µM in each case. Moreover, the TGI with HCC-2998 colon, in the test with HOP-92 NSCLC, with RXF 393 renal and in the test on HS 578T breast was greater than 100 µM throughout.
Regarding `CCCCCC(/C=N/NC(N)=S)C(O)(C(F)(F)F)C(F)(F)F` (configuration not stated), the TGI with SK-MEL-5 melanoma, in the test on SNB-19 CNS, in the test with U251 CNS, with OVCAR-3 ovarian, in the test with UACC-257 melanoma and in the test with MALME-3M melanoma was greater than 10 µM each time. Also, the TGI with SF-268 CNS, with SR leukemia, in the test with ACHN renal, in the test on M14 melanoma, in the test with MCF7 breast and in the test on MDA-MB-435 was greater than 10 µM in each case. Also, the TGI in the test on HCC-2998 colon, in the test with HOP-92 NSCLC, with RXF 393 renal and in the test on HS 578T breast was greater than 10 µM in each case.
Regarding `C/C=C/OC1C(C2COC(C)(C)O2)OC2OC(C)(C)OC21` (configuration not stated), the TGI with SK-MEL-5 melanoma, in the test with SNB-19 CNS, with U251 CNS, with OVCAR-3 ovarian, in the test on UACC-257 melanoma and with MALME-3M melanoma was greater than 100 µM each time. For the same compound, the TGI in the test with SF-268 CNS, in the test on SR leukemia, in the test with ACHN renal, in the test on M14 melanoma, with MCF7 breast and in the test on MDA-MB-435 was greater than 100 µM throughout. Moreover, the TGI in the test with HCC-2998 colon, in the test with HOP-92 NSCLC, in the test with RXF 393 renal and in the test with HS 578T breast was greater than 100 µM throughout.
